The subject of experiment [1] is NCI-H1781 cells (HER2-A775_G776insV-G776C). Description: Cell proliferation assay (CellTiter-Glo), NCI-H1781. It is filed as cell-based. The following applies: first inflexion of biphasic curve. The procedure:
(§1) Besides Ba/F3s, two commercially available cell lines were also used. NCI-H1781 is a HER2 exon20 insertion cell line bearing HER2-A775_G776insV-G776C. A431 bears amplification of the wild-type EGFR gene.
Ba/F3 cells were plated at 1,000 cells/well (40 μL), or NCI-H1781 or A431 cells were plated at 2,000 cells/well (40 μL), in a 384-well plate for 1 day. Test compounds (40 nL) were then added in a 3-fold dilution series using the TECAN EV0200 liquid handler and incubated for 48 hours (“2 days”), 72 hours (“3 days”), or 48 hours followed by renewal of compound solutions and further incubation for 72 hours (“2 days/3 days”). The 72-hour assay was necessary for NCI-H1781 cells, which are slow-growing, and the resupply of fresh compounds on day 3 obviated the potential confounding effects arising from compound degradation in cell media over 72 hours. Plates were equilibrated at room temperature for 15 minutes followed by addition of 40 μL CellTiter-Glo reagent (Promega). Luminescence was measured on a plate reader. Half-maximal inhibitory concentration (IC50) was calculated from percent inhibition and inhibitor concentration using four-parameter logistic regression. […] In these cases, the regression curve was drawn only for the first inflexion to accurately measure on-target growth inhibitory effect.
Ba/F3, NCI-H1781, and A431 proliferation is driven by the oncogenes in the same way that cancer cell proliferation in humans is driven by the expression of equivalent oncogenes.

Experiment [2] concerns the target T1, wild-type EGFR (A431 cells) (Homo sapiens, UniProt P00533).
T1 construct: A431 bears amplification of the wild-type EGFR gene; endogenous in cells; host or cells: A431
Description: Cellular phosphorylation assay, pEGFR (phospho-EGFR Tyr1068 AlphaLISA) in A431. It is filed as cell-based. To be noted: compound incubated for 5 hours, EGF (30 ng/mL) for 15 minutes. A digest of the protocol:
(§2)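 Cells (12,500/well) plated 1 day, then exposed to 3-fold compound dilutions for 5 h; for pEGFR only, A431 stimulated with EGF 30 ng/mL for 15 min. Lysates read by AlphaLISA for pHER2 Tyr1221/1222, pEGFR Tyr1068 or pERK Thr202/Tyr204; IC50 from percent inhibition by four-parameter logistic fit.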
(Bead proximity is the source of the signal in Alpha formats.)

The target in experiment [3] is T2, HER2-A775_G776insV-G776C (NCI-H1781 cells) (Homo sapiens, UniProt P04626, G776C/INS775V).
T2 construct: NCI-H1781 is a HER2 exon20 insertion cell line bearing HER2-A775_G776insV-G776C; endogenous in cells; host or cells: NCI-H1781
T2 sequence (P04626 with tags, fused parts or gaps INS775V/G776C): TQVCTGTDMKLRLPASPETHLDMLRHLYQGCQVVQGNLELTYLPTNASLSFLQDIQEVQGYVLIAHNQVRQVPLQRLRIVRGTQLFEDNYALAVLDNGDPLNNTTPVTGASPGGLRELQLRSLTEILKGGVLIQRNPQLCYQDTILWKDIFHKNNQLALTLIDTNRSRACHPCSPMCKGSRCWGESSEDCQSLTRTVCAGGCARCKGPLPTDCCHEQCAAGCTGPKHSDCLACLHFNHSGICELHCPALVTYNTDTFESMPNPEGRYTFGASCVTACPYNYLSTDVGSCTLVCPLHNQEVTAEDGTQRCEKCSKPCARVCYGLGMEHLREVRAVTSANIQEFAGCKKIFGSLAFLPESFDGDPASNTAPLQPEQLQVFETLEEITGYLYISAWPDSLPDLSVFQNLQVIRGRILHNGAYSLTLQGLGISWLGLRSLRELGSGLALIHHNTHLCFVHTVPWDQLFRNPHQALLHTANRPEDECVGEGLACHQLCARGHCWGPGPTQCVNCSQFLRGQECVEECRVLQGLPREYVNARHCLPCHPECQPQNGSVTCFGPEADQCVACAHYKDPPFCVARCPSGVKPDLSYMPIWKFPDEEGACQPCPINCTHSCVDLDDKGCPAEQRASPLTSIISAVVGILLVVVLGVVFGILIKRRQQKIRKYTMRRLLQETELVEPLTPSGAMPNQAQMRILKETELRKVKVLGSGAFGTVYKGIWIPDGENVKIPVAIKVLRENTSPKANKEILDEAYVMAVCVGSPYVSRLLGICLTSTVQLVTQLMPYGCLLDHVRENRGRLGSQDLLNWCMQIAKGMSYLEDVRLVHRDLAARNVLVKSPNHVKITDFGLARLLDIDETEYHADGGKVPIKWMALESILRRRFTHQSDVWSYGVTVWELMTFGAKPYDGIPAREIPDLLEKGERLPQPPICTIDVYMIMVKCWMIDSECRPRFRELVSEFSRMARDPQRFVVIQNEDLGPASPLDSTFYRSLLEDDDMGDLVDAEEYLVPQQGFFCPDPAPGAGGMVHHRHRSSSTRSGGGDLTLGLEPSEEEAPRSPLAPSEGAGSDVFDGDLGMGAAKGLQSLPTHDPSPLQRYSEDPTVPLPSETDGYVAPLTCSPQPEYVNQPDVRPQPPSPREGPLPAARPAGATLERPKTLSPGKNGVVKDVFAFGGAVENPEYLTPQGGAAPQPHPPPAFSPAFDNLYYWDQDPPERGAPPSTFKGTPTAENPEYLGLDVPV
Description: Cellular phosphorylation assay, pHER2 (phospho-ErbB2 Tyr1221/1222 AlphaLISA) in NCI-H1781. It is filed as cell-based. The following applies: compound incubated for 5 hours. The procedure: as §1
Ba/F3 cells were plated at 50,000 cells/well (40 μL), or NCI-H1781 cells or A431 cells were plated at 12,500 cells/well (40 μL), in a 384-well plate for 1 day. Test compounds (40 nL) were then added in a 3-fold dilution series using the TECAN EV0200 liquid handler and incubated for 5 hours. Only for pEGFR analysis in A431, the cells were briefly stimulated with EGF (30 ng/mL) for 15 minutes. Media were removed using Apricot Designs. Phosphoproteins were analyzed using the phospho-EGFR Tyr1068 AlphaLISA kit (“pEGFR”; PerkinElmer #ALSU-PEGFR-B10K;) phospho-ERK Thr202/Tyr204 AlphaLISA kit (“pERK”; PerkinElmer #ALSU-PERK-A10K) or the phospho-ErbB2 Tyr1221/1222 AlphaLISA kit (“pHER2”; PerkinElmer #ALSU-PEB2-A10K;) according to the manufacturer's instructions. Briefly, cells were lysed with lysis buffer (10 μL) containing protease-inhibitor and phosphatase-inhibitor cocktails. The lysates were transferred into a new optical plate, incubated with the acceptor mix (5 μL) for 1.5-2 hours at room temperature in darkness, and then mixed with the donor mix (5 μL) overnight in darkness. Fluorescence was measured on a plate reader using the appropriate AlphaLISA settings. Half-maximal inhibitory concentration (IC50) was calculated from percent inhibition and inhibitor concentration using four-parameter logistic regression.
HER2 is phosphorylated when activated. Therefore, phospho-HER2 indicates HER2 activity in the cells.

Experiment [4] has as its target Ba/F3 HER2-YVMA cells (HER2-A775_G776insYVMA) (Homo sapiens, UniProt P04626, DUP772-775, cells depend on it). Description: Cell proliferation assay (CellTiter-Glo), Ba/F3 HER2-YVMA. It counts as cell-based. To be noted: read-out: Ba/F3 HER2-YVMA cell proliferation IC50. A digest of the protocol:
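Ba/F3 cells stably expressing HER2-YVMA (IL-3-independent, puromycin-selected monoclones) seeded 1,000 cells/well, 1 day before 3-fold compound dilutions; incubated 48 h, 72 h, or 48 h then fresh compound and further 72 h. Viability by CellTiter-Glo luminescence; IC50 from percent inhibition by four-parameter logistic fit, first inflexion only where applicable.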
Background: ATP-based viability assays read luminescence as a measure of living cells.

Experiment [5] relates to A431 cells (amplification of the wild-type EGFR gene), phospho-ERK Thr202/Tyr204. Nature of the experiment: Cellular phosphorylation assay, pERK (phospho-ERK Thr202/Tyr204 AlphaLISA) in A431. It counts as cell-based. The following applies: Homo sapiens, A-431, compound incubated for 5 hours. A digest of the protocol:
as §2

For a further experiment, the target named is HER2 (Homo sapiens, UniProt P04626). To be noted: cited from earlier work.
Chain of HER2 (P04626 23-1255): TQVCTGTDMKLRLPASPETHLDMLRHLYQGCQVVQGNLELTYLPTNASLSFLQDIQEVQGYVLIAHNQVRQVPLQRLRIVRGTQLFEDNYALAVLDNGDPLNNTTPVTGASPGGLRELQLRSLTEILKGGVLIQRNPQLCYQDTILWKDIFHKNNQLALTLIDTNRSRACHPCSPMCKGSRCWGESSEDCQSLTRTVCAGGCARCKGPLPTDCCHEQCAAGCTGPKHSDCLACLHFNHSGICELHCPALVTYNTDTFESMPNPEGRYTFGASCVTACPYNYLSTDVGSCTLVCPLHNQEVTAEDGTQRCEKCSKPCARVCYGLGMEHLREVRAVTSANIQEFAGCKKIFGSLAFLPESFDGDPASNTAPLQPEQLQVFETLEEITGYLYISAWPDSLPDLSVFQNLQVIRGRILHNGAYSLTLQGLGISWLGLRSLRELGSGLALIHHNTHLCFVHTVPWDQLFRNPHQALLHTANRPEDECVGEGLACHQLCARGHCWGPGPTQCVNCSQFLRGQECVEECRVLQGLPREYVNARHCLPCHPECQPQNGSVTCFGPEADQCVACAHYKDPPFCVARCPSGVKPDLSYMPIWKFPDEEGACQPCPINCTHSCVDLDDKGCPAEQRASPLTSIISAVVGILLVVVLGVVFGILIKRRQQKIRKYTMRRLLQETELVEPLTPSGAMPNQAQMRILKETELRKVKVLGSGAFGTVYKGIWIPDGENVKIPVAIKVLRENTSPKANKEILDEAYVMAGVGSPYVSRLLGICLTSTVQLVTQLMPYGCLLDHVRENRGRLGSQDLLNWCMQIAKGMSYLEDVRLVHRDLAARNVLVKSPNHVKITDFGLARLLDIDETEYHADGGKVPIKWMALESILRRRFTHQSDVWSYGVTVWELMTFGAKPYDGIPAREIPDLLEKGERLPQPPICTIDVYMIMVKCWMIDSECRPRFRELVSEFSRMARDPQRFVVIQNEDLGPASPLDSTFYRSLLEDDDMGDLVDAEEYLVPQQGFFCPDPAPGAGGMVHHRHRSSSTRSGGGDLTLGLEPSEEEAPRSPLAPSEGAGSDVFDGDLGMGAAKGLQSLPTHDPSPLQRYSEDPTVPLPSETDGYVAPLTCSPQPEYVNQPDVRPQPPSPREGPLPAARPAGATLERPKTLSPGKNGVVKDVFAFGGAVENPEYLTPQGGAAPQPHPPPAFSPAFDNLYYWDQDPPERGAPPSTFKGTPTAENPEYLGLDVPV

Data on ten molecules can be found in US12037346B2, “Amino-substituted heteroaryls for treating cancers with EGFR mutations” (Nuvalent, Inc., priority 2021, dated 2024).

Chain of Ba/F3 HER2-YVMA cells (HER2-A775_G776insYVMA) (P04626 with tags, fused parts or gaps DUP772-775): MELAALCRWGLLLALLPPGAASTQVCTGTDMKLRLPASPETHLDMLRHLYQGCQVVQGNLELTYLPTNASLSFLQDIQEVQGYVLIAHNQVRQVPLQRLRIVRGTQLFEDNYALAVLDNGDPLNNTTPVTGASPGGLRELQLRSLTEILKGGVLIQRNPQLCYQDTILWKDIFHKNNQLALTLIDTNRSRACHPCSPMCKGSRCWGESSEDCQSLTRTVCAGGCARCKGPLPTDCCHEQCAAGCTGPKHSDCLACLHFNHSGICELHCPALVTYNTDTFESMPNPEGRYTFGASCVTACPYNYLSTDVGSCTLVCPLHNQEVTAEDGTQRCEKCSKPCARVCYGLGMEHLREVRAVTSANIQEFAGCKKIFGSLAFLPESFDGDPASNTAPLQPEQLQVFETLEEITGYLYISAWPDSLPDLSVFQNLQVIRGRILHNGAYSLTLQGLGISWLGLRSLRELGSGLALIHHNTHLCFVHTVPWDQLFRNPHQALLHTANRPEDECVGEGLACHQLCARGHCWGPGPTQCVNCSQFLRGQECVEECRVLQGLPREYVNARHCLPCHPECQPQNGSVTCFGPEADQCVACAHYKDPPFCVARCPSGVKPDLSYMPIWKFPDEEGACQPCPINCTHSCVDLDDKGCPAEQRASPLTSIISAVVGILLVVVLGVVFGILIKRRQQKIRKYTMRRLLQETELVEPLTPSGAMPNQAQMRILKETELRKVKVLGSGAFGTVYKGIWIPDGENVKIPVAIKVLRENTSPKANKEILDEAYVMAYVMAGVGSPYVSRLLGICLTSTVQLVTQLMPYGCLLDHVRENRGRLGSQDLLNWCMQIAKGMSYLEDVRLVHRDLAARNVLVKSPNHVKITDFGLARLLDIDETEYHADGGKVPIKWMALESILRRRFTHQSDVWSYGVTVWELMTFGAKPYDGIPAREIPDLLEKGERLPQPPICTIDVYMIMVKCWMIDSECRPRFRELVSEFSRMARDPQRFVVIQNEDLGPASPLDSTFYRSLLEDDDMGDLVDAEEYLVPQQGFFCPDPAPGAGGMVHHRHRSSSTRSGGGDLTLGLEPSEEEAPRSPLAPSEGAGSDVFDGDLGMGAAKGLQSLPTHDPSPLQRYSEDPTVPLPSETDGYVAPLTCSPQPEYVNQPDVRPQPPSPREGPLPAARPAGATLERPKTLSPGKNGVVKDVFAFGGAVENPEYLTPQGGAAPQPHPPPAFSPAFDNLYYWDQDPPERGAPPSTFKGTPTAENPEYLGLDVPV
T1 sequence (P00533 25-1210): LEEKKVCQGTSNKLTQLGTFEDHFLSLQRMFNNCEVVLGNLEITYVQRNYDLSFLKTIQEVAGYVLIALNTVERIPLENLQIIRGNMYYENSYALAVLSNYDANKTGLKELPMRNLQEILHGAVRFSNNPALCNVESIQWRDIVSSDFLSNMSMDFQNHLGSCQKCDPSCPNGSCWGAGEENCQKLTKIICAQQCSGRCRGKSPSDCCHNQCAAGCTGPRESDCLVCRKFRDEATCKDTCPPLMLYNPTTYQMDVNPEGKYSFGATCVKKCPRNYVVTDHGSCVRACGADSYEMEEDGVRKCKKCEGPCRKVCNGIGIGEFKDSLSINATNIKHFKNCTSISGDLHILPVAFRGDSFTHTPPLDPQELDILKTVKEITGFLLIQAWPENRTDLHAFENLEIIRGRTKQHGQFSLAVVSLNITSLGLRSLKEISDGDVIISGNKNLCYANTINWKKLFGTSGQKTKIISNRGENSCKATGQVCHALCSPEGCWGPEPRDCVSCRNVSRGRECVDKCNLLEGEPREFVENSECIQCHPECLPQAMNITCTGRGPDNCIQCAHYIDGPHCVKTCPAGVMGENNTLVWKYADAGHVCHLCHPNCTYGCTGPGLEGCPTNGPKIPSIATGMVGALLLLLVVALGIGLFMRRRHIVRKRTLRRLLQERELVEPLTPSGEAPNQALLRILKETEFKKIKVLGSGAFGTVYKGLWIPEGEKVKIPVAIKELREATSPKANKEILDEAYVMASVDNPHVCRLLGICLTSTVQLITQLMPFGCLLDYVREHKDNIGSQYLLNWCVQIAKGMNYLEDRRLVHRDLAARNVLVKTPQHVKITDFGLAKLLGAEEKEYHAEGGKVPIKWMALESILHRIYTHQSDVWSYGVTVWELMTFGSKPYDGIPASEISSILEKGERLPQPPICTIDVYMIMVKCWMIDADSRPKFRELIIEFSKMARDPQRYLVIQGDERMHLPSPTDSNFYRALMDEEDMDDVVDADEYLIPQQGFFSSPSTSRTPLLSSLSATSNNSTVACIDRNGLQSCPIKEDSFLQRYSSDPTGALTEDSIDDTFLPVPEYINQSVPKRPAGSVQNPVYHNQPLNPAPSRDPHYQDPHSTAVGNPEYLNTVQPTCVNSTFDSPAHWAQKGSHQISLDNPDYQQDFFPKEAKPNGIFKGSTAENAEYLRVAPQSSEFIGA

Take `C=CC(=O)N1CCN(c2ccc3ncnc(Nc4ccc(Oc5ccn6ncnc6c5)c(C)c4)c3n2)CC1` [Example 9]: the IC50 in experiment [1] was < 100 nM; in experiment [2] it was 100 to 500 nM; in experiment [3], < 100 nM; in experiment [5] it was 500 to 1000 nM. Besides, the GI50 in experiment [4] is < 100 nM.
As for `C=CC(=O)N1CC=C(c2ccc3ncnc(Nc4ccc(Oc5ccn6ncnc6c5)c(C)c4)c3n2)CC1` [Example 12], the IC50 in experiment [1] was < 100 nM; in experiment [2], 500 to 1000 nM; in experiment [3], < 100 nM; in experiment [5], 500 to 1000 nM. In experiment [4], the GI50 was < 100 nM.
Regarding `Cc1cc(Nc2ncnc3ccc(C4=CCN(C(=O)/C=C/CN(C)C)CC4)nc23)ccc1Oc1ccn2ncnc2c1` [Example 13], the IC50 was < 100 nM in experiment [1], 100 to 500 nM in experiment [2], < 100 nM in experiment [3] and ≥ 1000 nM in experiment [5]. Also, the GI50 in experiment [4] was < 100 nM.
In the case of `C=CC(=O)N1CC=C(c2ncc3ncnc(Nc4ccc(Oc5ccn6ncnc6c5)c(C)c4)c3n2)CC1` [Example 18], the IC50 in experiment [1] is < 100 nM; in experiment [2], 500 to 1000 nM; in experiment [3], < 100 nM; in experiment [5] it was 500 to 1000 nM. In experiment [4], the GI50 was < 100 nM.
With `C=CC(=O)N1CC=C(c2ccc3ncnc(Nc4ccc(Oc5ccn6ncnc6c5)c(C)c4)c3n2)C1` [Example 21], the IC50 is 100 to 500 nM in experiment [1], ≥ 1000 nM in experiment [2], < 100 nM in experiment [3] and ≥ 1000 nM in experiment [5]. In addition, the GI50 in experiment [4] was 100 to 500 nM.
Take `C=CC(=O)N1CCN(c2ncc3ncnc(Nc4ccc(Oc5ccn6ncnc6c5)c(C)c4F)c3n2)C[C@@H]1C` [Example 49]: the IC50 in experiment [1] is < 100 nM; in experiment [2], ≥ 1000 nM; in experiment [3], < 100 nM; in experiment [5] it was ≥ 1000 nM. In addition, in experiment [4], the GI50 is < 100 nM.
For `C=CC(=O)N1CCN(c2ncc3ncnc(Nc4ccc(Oc5ccn6ncnc6c5)c(C)c4F)c3c2F)C[C@H]1C` [Example 52], the IC50 in experiment [1] is < 100 nM; in experiment [2], ≥ 1000 nM; in experiment [3] it was < 100 nM; in experiment [5], ≥ 1000 nM. In addition, the GI50 in experiment [4] is < 100 nM.
For the molecule `C=CC(=O)N1CCN(c2ccc3ncnc(Nc4ccc(Oc5ccn6ncnc6c5)c(C)c4F)c3c2F)C[C@H]1C` [Example 53], the half-maximal inhibitory concentration (IC50) was < 100 nM in experiment [1], ≥ 1000 nM in experiment [2], < 100 nM in experiment [3] and ≥ 1000 nM in experiment [5]. Besides, the GI50 in experiment [4] is < 100 nM.
`C=CC(=O)N1CCC(c2ncc3ncnc(Nc4ccc(Oc5ccn6ncnc6c5)c(C)c4F)c3n2)=C[C@@H]1C` [Example 54]: the IC50 in experiment [1] is < 100 nM; in experiment [2], 500 to 1000 nM; in experiment [3], < 100 nM; in experiment [5] it was 100 to 500 nM. For the same molecule, the GI50 in experiment [4] was < 100 nM.
For `Cc1cc(Nc2ncnc3ccc(NC4=NC(C)(C)CO4)cc23)ccc1Oc1ccn2ncnc2c1` [Tucatinib], at HER2 (compared to placebo (5.6 months)), the “median progression free survival” value is 7.8 months. Besides, the median overall survival at HER2 (compared to placebo (17.4 months)) was 21.9 months. Also, the objective response rate at HER2 (compared to placebo (23%)) was 41%.

As a reminder, the IC50 is the concentration that gives 50% inhibition.
